Laboratory results: ChEMBL document CHEMBL1201862, “PubChem BioAssay data set” (2004)
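Dose response: 5 concentrations. Exposure: 48 h. Format: 96-well plates. Endpoint: linear interpolation; highest concentration if not reached. GI50: concentration for 50% inhibition of growth.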 The source made the active and inactive calls. Rule as the data show it: active = GI50 up to about 1.1 µM and inactive = higher.

How the values were obtained:
Assay in all cases: growth of human tumour cells (NCI), 48 h
786-0 = test system: 786-0
BT-549 = test system: BT-549
CCRF-CEM = test system: CCRF-CEM
HOP-92 = test system: HOP-92
K562 = test system: K562
MOLT-4 = test system: MOLT-4
NCI-H226 = test system: NCI-H226
NCI-H460 = test system: NCI-H460
OVCAR-3 = test system: OVCAR-3
RXF 393 = test system: RXF 393
SF-295 = test system: SF-295
SF-539 = test system: SF-539
SK-MEL-2 = test system: SK-MEL-2
SW-620 = test system: SW-620
U-251 = test system: U-251
UACC-257 = test system: UACC-257
UO-31 = test system: UO-31
SK-MEL-28 = test system: SK-MEL-28
HL-60 = test system: HL-60

Compound | GI50 (786-0) | GI50 (BT-549) | GI50 (CCRF-CEM) | GI50 (HOP-92) | GI50 (K562) | GI50 (MOLT-4) | GI50 (NCI-H226) | GI50 (NCI-H460) | GI50 (OVCAR-3) | GI50 (RXF 393) | GI50 (SF-295) | GI50 (SF-539) | GI50 (SK-MEL-2) | GI50 (SW-620) | GI50 (U-251) | GI50 (UACC-257) | GI50 (UO-31) | GI50 (SK-MEL-28) | GI50 (HL-60)
CN1C(=O)C(=CNc2ccccc2[N+](=O)[O-])C(=O)N(C)C1=O | > 100 µM (inactive) | > 100 µM (inactive) | > 100 µM (inactive) | > 100 µM (inactive) | > 100 µM (inactive) | > 100 µM (inactive) | > 100 µM (inactive) | > 100 µM (inactive) | > 100 µM (inactive) | > 100 µM (inactive) | > 100 µM (inactive) | > 100 µM (inactive) | > 100 µM (inactive) | > 100 µM (inactive) | > 100 µM (inactive) | > 100 µM (inactive) | > 100 µM (inactive) |  | 
CC(C)(C)OC(=O)[C@@H]1CCC(=S)N1Cc1ccccc1 | > 100 µM (inactive) | 71.8 µM (inactive) | > 100 µM (inactive) | > 100 µM (inactive) | > 100 µM (inactive) | 93.1 µM (inactive) | 60.1 µM (inactive) | > 100 µM (inactive) | > 100 µM (inactive) | > 100 µM (inactive) | > 100 µM (inactive) | > 100 µM (inactive) | > 100 µM (inactive) | > 100 µM (inactive) | > 100 µM (inactive) | > 100 µM (inactive) | 78.2 µM (inactive) | > 100 µM (inactive) | 
Nc1cc(OCc2ccccc2)c(OCc2ccccc2)cc1C=O | 17.5 µM (inactive) | 14.5 µM (inactive) | 22.3 µM (inactive) |  | 44.4 µM (inactive) | 18.6 µM (inactive) | 44 µM (inactive) | 14.1 µM (inactive) |  |  | 31.4 µM (inactive) | 5.83 µM (inactive) | 28.2 µM (inactive) | 46.2 µM (inactive) | 28.4 µM (inactive) | 85.9 µM (inactive) |  | 42.1 µM (inactive) | 15.2 µM (inactive)
CCOC1OC(CO)C(O)CC1n1ccc(=O)[nH]c1=O (stereo unspecified) | > 100 µM (inactive) | > 100 µM (inactive) |  | > 100 µM (inactive) | > 100 µM (inactive) |  | > 100 µM (inactive) | > 100 µM (inactive) | > 100 µM (inactive) | > 100 µM (inactive) | > 100 µM (inactive) | > 100 µM (inactive) | > 100 µM (inactive) | > 100 µM (inactive) | > 100 µM (inactive) | > 100 µM (inactive) | > 100 µM (inactive) | > 100 µM (inactive) | 
COc1ccc(-n2cnc3c(NCC(=O)O)ncnc32)cc1 | > 100 µM (inactive) | > 100 µM (inactive) | 48.5 µM (inactive) | > 100 µM (inactive) | > 100 µM (inactive) | > 100 µM (inactive) | > 100 µM (inactive) | > 100 µM (inactive) | > 100 µM (inactive) |  | > 100 µM (inactive) |  | > 100 µM (inactive) | > 100 µM (inactive) | > 100 µM (inactive) | > 100 µM (inactive) | > 100 µM (inactive) | > 100 µM (inactive) | 
Cc1ccnc2nc3[nH]c4ccccc4c3cc12 | 24.4 µM (inactive) | 48 µM (inactive) | 75 µM (inactive) | > 100 µM (inactive) | > 100 µM (inactive) | > 100 µM (inactive) | > 100 µM (inactive) | > 100 µM (inactive) | > 100 µM (inactive) | > 100 µM (inactive) | > 100 µM (inactive) | > 100 µM (inactive) | > 100 µM (inactive) | > 100 µM (inactive) | 39.1 µM (inactive) | 89.5 µM (inactive) | > 100 µM (inactive) |  | 
COc1cc(NS(C)(=O)=O)ccc1Nc1ccnc2ccc3[nH]ccc3c12 | 14.6 µM (inactive) | 14.6 µM (inactive) | 10.4 µM (inactive) | 11.9 µM (inactive) | 10.9 µM (inactive) |  | 18.9 µM (inactive) | 18.2 µM (inactive) | 15.3 µM (inactive) |  | 18.2 µM (inactive) |  | 16.7 µM (inactive) | 13.3 µM (inactive) | 14 µM (inactive) | 18.2 µM (inactive) | 40.2 µM (inactive) | 16.6 µM (inactive) | 31.5 µM (inactive)
CN(C)c1ccc(/C=C2\C[C@H]3[C@@H]4CCc5cc(OCCN6CCCC6)ccc5[C@H]4CC[C@]3(C)C2=O)cc1 | 1.32 µM (inactive) | 3.39 µM (inactive) | 1.13 µM (inactive) |  | 1.08 µM (active) | 1.31 µM (inactive) | 1.82 µM (inactive) | 1.59 µM (inactive) |  | 1.57 µM (inactive) | 1.86 µM (inactive) | 1.59 µM (inactive) | 1.98 µM (inactive) |  |  | 2.21 µM (inactive) | 1.54 µM (inactive) | 1.53 µM (inactive) | 
CSc1nc2c(c(N(C)C)n1)C=Nn1c(nc3ccccc31)S2 | 65 µM (inactive) | 95.9 µM (inactive) |  | 25.7 µM (inactive) | > 100 µM (inactive) | > 100 µM (inactive) | > 100 µM (inactive) | 89.1 µM (inactive) | > 100 µM (inactive) | 29 µM (inactive) | > 100 µM (inactive) |  | > 100 µM (inactive) | > 100 µM (inactive) | > 100 µM (inactive) | 99.1 µM (inactive) | 51.1 µM (inactive) | > 100 µM (inactive) | 
CCN(CC)CCC1(C(=O)OC)SCCc2ccc(C)cc21 (stereo unspecified) | > 100 µM (inactive) | > 100 µM (inactive) | > 100 µM (inactive) | > 100 µM (inactive) | > 100 µM (inactive) | > 100 µM (inactive) | > 100 µM (inactive) | > 100 µM (inactive) | > 100 µM (inactive) | > 100 µM (inactive) | > 100 µM (inactive) | > 100 µM (inactive) | > 100 µM (inactive) | > 100 µM (inactive) | > 100 µM (inactive) | > 100 µM (inactive) | > 100 µM (inactive) | > 100 µM (inactive) | 
CC(C)(O)C1OCC(C2CCC3(C)C4=CCC5C(C)(C)C(O)CCC5(C)C4CCC23C)CC1O (stereo unspecified) | 14.2 µM (inactive) | 11.1 µM (inactive) | 26.4 µM (inactive) | 12.6 µM (inactive) | 4.44 µM (inactive) | 10.8 µM (inactive) | 13 µM (inactive) | 13.4 µM (inactive) | 17.1 µM (inactive) |  | 13.9 µM (inactive) | 13.6 µM (inactive) | 22.8 µM (inactive) | 15.2 µM (inactive) | 14.4 µM (inactive) | 18.4 µM (inactive) | 16 µM (inactive) | 15.8 µM (inactive) | > 100 µM (inactive)
COc1ccc2c(c1)/C(=C\c1c(C)nc3n1CCS3)C(=O)N2 | 35.2 µM (inactive) | 21.1 µM (inactive) | 24.7 µM (inactive) | 34.4 µM (inactive) | 10.3 µM (inactive) | 32.4 µM (inactive) |  | 20 µM (inactive) | 21.7 µM (inactive) | 40.7 µM (inactive) | 16.4 µM (inactive) | 18.3 µM (inactive) | 29 µM (inactive) | 9.79 µM (inactive) | 22.1 µM (inactive) | 47.6 µM (inactive) | 34.3 µM (inactive) | 46.8 µM (inactive) | 15.6 µM (inactive)
c1ccc2nc3c(nc2c1)sc1ccccc13 | 23 µM (inactive) | 39.2 µM (inactive) | 30.9 µM (inactive) |  | > 100 µM (inactive) | 21.8 µM (inactive) | 18.6 µM (inactive) | 13.6 µM (inactive) | 29.4 µM (inactive) |  | 30.7 µM (inactive) | 16.4 µM (inactive) | 67.5 µM (inactive) | 56 µM (inactive) | 16 µM (inactive) | 37.2 µM (inactive) | 23.7 µM (inactive) | > 100 µM (inactive) | > 100 µM (inactive)
S=C1N(/N=C/c2c3ccccc3cc3ccccc23)C(=N\c2ccccc2)/C(=N/c2ccccc2)N1c1ccccc1 | > 100 µM (inactive) | > 100 µM (inactive) |  | > 100 µM (inactive) | > 100 µM (inactive) | > 100 µM (inactive) | > 100 µM (inactive) | > 100 µM (inactive) | > 100 µM (inactive) | > 100 µM (inactive) | > 100 µM (inactive) | > 100 µM (inactive) | > 100 µM (inactive) | > 100 µM (inactive) | > 100 µM (inactive) | > 100 µM (inactive) | > 100 µM (inactive) | > 100 µM (inactive) | 
CCCCCCCCCCCCCCCCOCC(CC(F)(F)P(=O)(O)O)OC(C)=O (stereo unspecified) | > 50 µM (inactive) | > 50 µM (inactive) |  | > 50 µM (inactive) | > 50 µM (inactive) | > 50 µM (inactive) | > 50 µM (inactive) | > 50 µM (inactive) | > 50 µM (inactive) |  | > 50 µM (inactive) |  | > 50 µM (inactive) | > 50 µM (inactive) | > 50 µM (inactive) | > 50 µM (inactive) | > 50 µM (inactive) | > 50 µM (inactive) | 
C/C(=N\Nc1nc2ccccc2o1)c1cccc[n+]1[O-] | 21.7 µM (inactive) | 81.7 µM (inactive) | 4.3 µM (inactive) | 2.53 µM (inactive) | 7.23 µM (inactive) | 1.5 µM (inactive) | 45.7 µM (inactive) | 9.18 µM (inactive) | 2.69 µM (inactive) | 24.6 µM (inactive) | 0.0877 µM (active) | 23.4 µM (inactive) | > 100 µM (inactive) | 5.12 µM (inactive) | 8.26 µM (inactive) | 13 µM (inactive) | 4.45 µM (inactive) | 24.8 µM (inactive) | 
